Experimental data from patent publication US20090246248A1, “COATING COMPOSITIONS HAVING IMPROVED PERFORMANCE” (priority 2008, published 2009).
Square brackets hold non-standard residues; d marks the D form. Ends that are not written are not given here. Aun = NCCCCCCCCCCC(=O)O; AEEA = NCCOCCOCC(=O)O

Experiments:
[1] = Critical micelle concentration (methyl orange assay); assay type: physicochemical; settings: pH 7 PBS, A484
Experimental: Formation of a composition of the invention, and evidence of macromolecular network formation, may be monitored or quantified by any means known in the art. In this example, macromolecular formation was detected using a standard assay for determining critical micelle concentration (“CMC”). In this assay, a solution containing the composition of the invention (in a range of concentrations in pH 7 phosphate buffered saline (“PBS”)) was mixed with a solution of methyl orange (0.04 mM in PBS), and the absorbance of the mixture was measured at 484 nm (A484). CMC is the concentration at which a sharp decrease in absorbance at A484 is observed, a change in the optical properties of methyl orange when trapped in a hydrophobic phase, such as caused by self-association as a macromolecular network (Table 7, “CMC”). Also included in this assay were an assay control peptide having an amino acid sequence of SEQ ID NO:122 (Table 7, “Control”), and compound 119 (a PEGylated peptide, the peptide having an amino acid sequence of SEQ ID NO:122, as described in more detail in Example 6 herein).

[2] = assay type: binding; settings: 18 hour incubation in 10% BSA+10 mM guanidinium chloride; FIG. 1
Text: In this example, illustrated are unexpected beneficial properties of the composition of the invention, including but not limited to, one or more improved biophysical properties. Such one or more unexpected beneficial properties of a composition of the invention may comprise an increase in stability. An increase in stability may comprise any one or more of resistance to chemical denaturation, resistance to proteolytic degradation, improved retention to a substrate (e.g., resistance to being competed off a substrate to which it is bound, such as by proteins or other biomolecules found in body tissues). Thus, to ascertain a beneficial property of a composition of the invention, it is compared to the properties of a component of the composition-namely, a substrate-binding peptide by itself (e.g., without fatty acid covalently coupled thereto). An assay was developed that, from our direct comparisons (see, e.g., discussion of FIG. 2 below, and Example 7 herein), mimicked the effect of incubation of substrate-binding peptide with human plasma on stability of binding of a substrate-binding peptide to its substrate. The assay utilized incubations in the presence of 10% bovine serum album (BSA) with 10 mM guanidinium chloride. The high BSA concentration mimics the elevated albumin content of human plasma, and the guanidinium chloride is used to compete with any charged interactions involved in binding of the substrate-binding peptide to its substrate.
In this assay, two immunoassay plates were prepared for a “side-by-side” comparison of binding of a test sample (substrate-binding peptide or composition of the invention) to its substrate with or without the presence of 10% BSA with 10 mM guanidinium chloride. The wells of each 96-well polypropylene plate were incubated with 350 μl BSA 1% in PBS for 30 minutes at 20° C. with 500 rpm shaking. To each well was added one acetone-cleaned 3/32″ 316LVM stainless steel bead, followed by addition of dilutions in PBS of the test sample in a range of concentrations starting from 10 μM. Final volume in each well was 200 μl. The plates were incubated for 1 hour at 20° C. with 500 rpm shaking to allow for the binding to occur. The beads were washed 3 times with 250 μl PBS using a plate washer. […]
In the immunoassay for detecting binding without the presence of 10% BSA with 10 mM guanidinium chloride, added to each well was 200 μl of streptavidin AP (AP is alkaline phosphatase) at 1/200 in TBS+1% BSA. […] When color has developed, each well was read at OD405 nm in endpoint mode using a plate reader. […] When color has developed, the wells were read at OD405 nm in endpoint mode using a plate reader. […]

[3] = Vancomycin loading onto titanium bead (HPLC of HCl eluate); settings: mixture with vancomycin, 30 mins 20° C., washed with PBS
Experimental: The experimental procedure used for the embodiments described above was as follows. […] All three components were mixed and then applied to the metal bead. […] All three components were mixed and then applied to the metal bead. […] The mixtures were applied to the metal beads and incubated for 30 mins at 20° C. with 700 rpm shaking. The beads were washed three times with 350 ul PBS. Beads were analyzed as follows: 200 ul of 100 mM HCl was added to each bead and incubated for 30 mins at 20° C. with 1,000 rpm shaking. The eluate from each bead was analyzed by HPLC using Phenomenex Luna 3 um column, 50×4.60 mm. Output was compared to a standard curve for vancomycin to determine the amount of vancomycin retained onto the metal bead.

[4] = Binding assay for glycopeptide antibiotic (biotinylated vancomycin, immobilized peptide); settings: peptide immobilized on streptavidin plate
Experimental: A typical binding assay for glycopeptide antibiotic was performed according to the following procedure. Briefly, synthetic peptides comprising an amino acid sequence to be characterized for binding were biotinylated to facilitate immobilization on streptavidin-coated 96-well plates. The microtiter plates were coated with streptavidin by adding 50 μl of a 10 μg/ml streptavidin solution in 0.1 M NaHCO3, and incubating the plates for at least 3 hours. The plate wells were blocked by adding 150 μl of a 1% BSA solution in 0.1 NaHCO3 with incubation for at least 2 hours, and the plates were stored at 4° C. until needed. Before use, the streptavidin plates were washed extensively in buffer-T. Added per well was peptide (100 μl 0.1 μM peptide in buffer-T), and then incubated for 30 minutes at room temperature with shaking. 200 μl of 0.5 mM biotin in buffer-T was added to block the remaining streptavidin sites, and plates were incubated for 15 minutes at room temperature. Plates were then washed with buffer-T to remove the excess biotin and peptide. Serial dilutions of biotinylated glycopeptide antibiotic in buffer-T were added (100 μl) to each well, representing a range of concentrations between 100 μM and […]. Plates were incubated for 30 minutes at room temperature with shaking prior to washing several times with buffer-T. Glycopeptide antibiotic was then detected by adding 100 μl of a diluted streptavidin-alkaline phosphatase conjugate to each well and incubated at room temperature for 30 minutes. Excess conjugate was removed by repeated washes with buffer-T, and the amount of alkaline phosphatase remaining in the well was detected using a pNPP (para-nitrophenylphosphate) colorimetric enzymatic assay. The relative amount of glycopeptide antibiotic captured by the peptides was determined by measuring the absorbance at 405 nm of the colored product of the alkaline phosphatase reaction. The EC50 was determined for each peptide relative to the binding affinity for the glycopeptide antibiotic used in the assay, as shown in Table 8 (with vancomycin as a representative glycopeptide antibiotic).

[5] = test system: Staphylococcus aureus strain MZ100; test: Tibia pin assay (coated titanium pins with vancomycin, bacterial culture); assay type: cell-based; set-up: key: —: no cfus; too many cfus to count, as they converge into one spot; settings: 3 hours 37° C.
Text: In this assay, titanium pins were used as a model for tibia pins. Briefly, sterile pins were first coated with biofunctional composition (“SEQ ID NO:124-linker-SEQ ID NO:122”) comprising a substrate-binding peptide having binding specificity for vancomycin (“SEQ ID NO:124”) linked to a substrate-binding peptide having binding specificity for metal (“SEQ ID NO:122”), or a composition of the invention formed from compound comprising the biofunctional composition covalently coupled to fatty acid. The respective coatings also include vancomycin bound thereto. The coated pins were then placed in a silicone tube containing liquid bacterial growth medium and inoculated with bacteria. After incubation, the pins were removed, and then the liquid growth medium was serially diluted. The serial dilutions were inoculated onto bacterial culture plates, the plates were incubated, and counted on the plates were bacterial colonies.
In this assay, test samples (biofunctional composition (Table 6, “BC”) or compositions 133, 134, 135, 136 139) each were used to coat a pin by incubating the test sample (in a range of from about 0.8 mM to about 1 mM) with 2.5 μl of a 10 mM vancomycin solution and PBS to a final volume of 250 μl in a microtube (3 pins per tube) for 60 minutes at room temperature with occasional agitation. In a piece of silicone tubing (1.5 mm inner diameter, 50 mm long), added is tryptic soy broth+0.2% glucose, the coated pin, and 103 colony forming units (cfu) of Staphylococcus aureus strain MZ100 in either a 20 μl inoculum, 40 μl inoculum, or 60 μl inoculum. The tubing is clamped closed, and the tubing is incubated for 37° C. for 3 hours. After 3 hours, serial dilutions (1:10, 1:100, 1:1000) were made of the culture media from each tubing, and 10 μl of the undiluted culture medium and of each dilution were spotted onto the bacterial culture plate. The bacterial culture plate was incubated overnight at 37° C., and then the cfus were counted. The results, a composite of different assay runs, are shown in Table 6 (“−” means no cfus; “many” means too many cfus to count, as they converge into one spot; “NT” means not tested).

119: Fmoc-NH-(PEG)27-CO2H covalently coupled to a peptide having the amino acid sequence of SEQ ID NO:122 (PEGylated peptide) (SSHRTNHKKNNPKKKNKTRGSSGK; also: Fmoc-NH-(PEG)27-CO2H covalently coupled, site not given here) [Compound 119]
CMC [1]: >>10 μM
retention of binding compared to substrate-binding peptide alone (SEQ ID NO:122) [2]: failed to promote retention

120: amino acid sequence YWAWAYAW (SEQ ID NO:129) covalently coupled to a peptide having the amino acid sequence of SEQ ID NO:122 (YWAWAYAWSSHRTNHKKNNPKKKNKTRGSSGK) [Compound 120]
retention of binding compared to substrate-binding peptide alone (SEQ ID NO:122) [2]: failed to promote retention

AUD-AUD-AUD-AUD-SEQ ID NO:122 ([Aun][Aun][Aun][Aun]SSHRTNHKKNNPKKKNKTRGSSGK) [Compound 122]
CMC [1]: 0.123 µM
retention of binding compared to substrate-binding peptide alone (SEQ ID NO:122) [2]: significantly improved retention

AUD-AUD-K-AUD-AUD-AUD-AUD-SEQ ID NO: 122 ([Aun][Aun]K[Aun][Aun][Aun][Aun]SSHRTNHKKNNPKKKNKTRGSSGK) [Compound 123]
CMC [1]: 0.04 µM
retention of binding compared to substrate-binding peptide alone (SEQ ID NO:122) [2]: significantly improved retention

MA-AHx-SSCLIDIYGVCHNFDAY-miniPeg-miniPeg-YFRAFRKFVKPFKRAFKGSSK(Biotin) [SEQ ID NO: 165]
Vancomycin Load [3]: 1,700 pmol/cm2

MA-Ahx-SSCLIDIYGVCHNFDAY-miniPeg-miniPeg-HKKNNPKKKNKTRGSSK(Biotin) [SEQ ID NO: 164]
Vancomycin Load [3]: 278 pmol/cm2

Pyrene-butyric-SSCLIDIYGVCHNFDAY-miniPeg-miniPeg-HKKNNPKKKNKTRGSS-K(Biotin) [SEQ ID NO: 166]
Vancomycin Load [3]: 173 pmol/cm2

RRRRRRR-PSSHRTNHKKNNPKKKNKTRGP-RRRRRRR-K(biotin) [SEQ ID NO: 156]
Vancomycin Load [3]: <10 pmol/cm2

SSHRTNHKKNNPKKKNKTRGSSGK [Compound 130, AUD-AUD-AUD-AUD-AUD-AUD-SEQ ID NO: 122]
CMC [1]: 0.041 µM
EC50 [4]: 10 µM

SSHRTNHKKNNPKKKNKTRGSSGK [Compound 131, AUD-AUD-AUD-AUD-AUD-AUD-AUD-AUD-SEQ ID NO: 122]
CMC [1]: 0.37 µM
EC50 [4]: 0.1 µM

SSSCLIDMYGVCHNFDGAYDSSRG [Compound 134, AUD-AUD-AUD-AUD-SEQ ID NO: 124-linker-SEQ ID NO: 122]
cfu 1:10 ([5]; Volume 20 μl inoculum): —
cfu 1:100 ([5]; Volume 20 μl inoculum): —
cfu 1:1000 ([5]; Volume 20 μl inoculum): —
cfu undiluted ([5]; Volume 20 μl inoculum): —
cfu 1:10 ([5]; Volume 40 μl inoculum): 6 cfu
cfu 1:100 ([5]; Volume 40 μl inoculum): 1 cfu
cfu 1:1000 ([5]; Volume 40 μl inoculum): —
cfu undiluted ([5]; Volume 40 μl inoculum): many
cfu 1:10 ([5]; Volume 60 μl inoculum): 17 cfu
cfu 1:100 ([5]; Volume 60 μl inoculum): 5 cfu
cfu 1:1000 ([5]; Volume 60 μl inoculum): —
cfu undiluted ([5]; Volume 60 μl inoculum): many
EC50 [4]: 10 µM

SSSCLIDMYGVCHNFDGAYDSSRG-miniPeg-miniPeg-SSHRTNHKKNNPKKKNKTRGSSGK (SSSCLIDMYGVCHNFDGAYDSSRG[AEEA][AEEA]SSHRTNHKKNNPKKKNKTRGSSGK; not fully specified (bridges); printed as SSSCLIDMYGVCHNFDGAYDSSRG-miniPeg-miniPeg-SSHRTNHKKNNPKKKNKTRGSSGK; cysteine pairing not given here) [SEQ ID NO: 163]
Vancomycin Load [3]: 54 pmol/cm2
